Experiments:
Format in all cases: functional
Set-up in all cases: scale not given here
Schistosoma mansoni [1] = tested on: Schistosoma mansoni
Schistosoma mansoni [2] = tested on: Schistosoma mansoni; remark: listed apart in the source
Schistosoma mansoni [3] = tested on: Schistosoma mansoni; remark: listed apart in the source

SMILES | Toxicity (Schistosoma mansoni [1]) | Toxicity (Schistosoma mansoni [2]) | Toxicity (Schistosoma mansoni [3])
CCOc1ccc2c(c1)CN(Cc1ccc(Cl)cc1)CO2 | 2 | 0 | 0
O=C(Nc1ccc(CN2CCOCC2)cc1)c1ccc(-c2cc(Cl)ccc2Cl)o1 | 0 | 2 | 0
COc1ccc(/C=C2/SC(=Nc3ccccc3)NC2=O)cc1 | 0 | 0 | 0
Cc1ccnc(NC(c2cccc(OCc3ccccc3)c2)c2ccc3cccnc3c2O)c1 (centres undefined) | 1 | 4 | 4
COc1ccc(CCN2C(=O)c3[nH]nc(-c4cc(Cl)c(C)cc4O)c3C2c2ccccc2F)cc1 (centres undefined) | 0 | 0 | 0
Nc1ccn([C@@H]2O[C@H](CO)[C@@H](O)[C@H]2O)c(=O)n1 [CYTIDINE] | 0 | 0 | 0
CC(Oc1ccc(NC(=O)c2cccs2)cc1)C(=O)c1ccc(Cl)cc1 (centres undefined) | 0 | 0 | 0
CCOc1cc2c(cc1OCC)C(c1cc(OC)c(O)cc1Cl)NCC2 (centres undefined) | 0 | 0 | 0
O=C(Nc1ccsc1C(=O)NC1CCCCC1)c1ccc(F)cc1 | 2 | 0 | 0
O=C(Nc1ccc(CN2CCOCC2)cc1)c1ccc(-c2ccc(Br)cc2)o1 | 0 | 0 | 0
COc1ccc(C(=O)Nc2ccc(Cl)cc2C(=O)Nc2ccncc2)cc1 | 0 | 0 | 0
Nc1ccc(-c2nc3cc(Oc4ccc(Oc5ccc6[nH]c(-c7ccc(N)cc7)nc6c5)cc4)ccc3[nH]2)cc1 | 0 | 0 | 2
Cl.c1ccc2c(NCCCCCCNc3c4c(nc5ccccc35)CCCC4)c3c(nc2c1)CCCC3 | 4 | 4 | 4
COc1cc(C(=O)Nc2nc3c(cc4c5c(cccc53)CC4)s2)cc(OC)c1OC | 0 | 0 | 0
COc1ccc(CN2CCCC(C(=O)c3ccc(C(F)(F)F)cc3)C2)c(O)c1 (centres undefined) | 0 | 0 | 0
Cc1ccc(CSCc2ccc(C(=O)NC3CC3)o2)cc1 | 0 | 0 | 0
Oc1c(C(Nc2ccccn2)c2cccc(Oc3ccccc3)c2)ccc2cccnc12 (centres undefined) | 0 | 4 | 4
O=C(NC1CCN(Cc2ccccc2)CC1)c1cc(-c2ccncc2)nc2ccc(Cl)cc12 | 0 | 0 | 2
COc1cccc(Nc2nc(NCCO)c3ccccc3n2)c1.Cl | 0 | 0 | 0
CCOc1ccccc1CNC(=O)C1c2ccccc2C(=O)N(CC(C)C)C1c1cccs1 (centres undefined) | 0 | 0 | 4
CCc1c(C)c(=N)c2ccccc2n1C.I | 0 | 0 | 0
COc1cccc(C=Cc2nc(=O)c3ccccc3o2)c1OC | 0 | 0 | 0
Cc1ccc(C(=O)c2oc3ccc4c(C)cc(=O)oc4c3c2C)cc1 | 0 | 0 | 0

SMILES | Toxicity (Schistosoma mansoni [1]) | Toxicity (Schistosoma mansoni [2]) | Toxicity (Schistosoma mansoni [3])
COc1cc(C(=O)ON=C(N)Cc2cccc3ccccc23)cc(OC)c1OC | 0 | 3 | 4
CCOc1cc(CNC(C)C(O)c2ccccc2)cc(Cl)c1OCC (centres undefined) | 0 | 0 | 1
COc1ccc(C2c3ccc4ccccc4c3Oc3ncn(CCCn4ccnc4)c(=N)c32)cc1OC (centres undefined) | 0 | 0 | 0
CCOC(=O)C1=CN(C)C=C(C(=O)OCC)C1c1cc(Br)c(OCC)c(OC)c1 | 0 | 0 | 0
CCOC(=O)c1ccc2nc(-c3ccccc3)cc(O)c2c1 | 0 | 0 | 4
OC1=C2C(=Nc3ccccc3SC2c2ccccc2)c2ccccc21 (centres undefined) | 0 | 0 | 0
CCOC(=O)c1cnc2ccc(OC)cc2c1NCc1ccccc1 | 1 | 0 | 1
O=c1c2c([nH]c3ccccc13)CCCC2 | 0 | 0 | 0
Cc1c(C)n(Cc2ccc(F)cc2)c2ccc(C(=O)NCc3ccco3)cc12 | 1 | 2 | 2
Cc1ccc2nc(C)cc(Nc3cccc(C(F)(F)F)c3)c2c1.Cl | 2 | 2 | 3
COc1ccc(C(=O)NC(c2ccccc2Cl)c2cc(Cl)c3cccnc3c2O)cc1 (centres undefined) | 0 | 2 | 4
Cc1ccccc1OCCSc1nc2ccc(NC(=O)c3ccccc3)cc2s1 | 0 | 0 | 0
Cc1cc(C)cc(Nc2cc(C)nc3nc(C(F)(F)F)nn23)c1 | 0 | 0 | 0
COc1cccc(C2(C)Nc3ccccc3-c3nc4ccccc4n32)c1 (centres undefined) | 0 | 0 | 0
CCCCNCC(O)(c1ccc(Cl)cc1)c1ccc(Cl)cc1 | 0 | 0 | 0
CN1C=C(c2ccc3ccccc3n2)C(c2c[nH]c3ccccc23)c2ccccc21 (centres undefined) | 0 | 0 | 0
CCOc1ccccc1NC(=O)CN1CCN(C(=O)c2ccco2)CC1 | 0 | 0 | 0
O=C(Nc1ccccc1O)c1ccc(-c2ccc(Cl)cc2Cl)o1 | 0 | 0 | 0
COc1ccc(C2Sc3ccccc3N=C3C2=C(O)c2ccccc23)cc1 (centres undefined) | 0 | 0 | 0
Cc1cc(Nc2cccc(F)c2)nc(NCc2ccccc2)n1 | 2 | 0 | 0
CCCCC(O)(c1ccc(Cl)cc1)C(CN1CCOCC1)c1ccc(Cl)cc1.Cl (centres undefined) | 0 | 0 | 4
CCCCCCc1cc(O)c2c3c(c(=O)oc2c1)CCC(C)C3 (centres undefined) | 0 | 2 | 0
O=C(Nc1cccc(C2=NCCN2)c1)Nc1cccc(C2=NCCN2)c1 [IMIDOCARB] | 0 | 0 | 0

SMILES | Toxicity (Schistosoma mansoni [1]) | Toxicity (Schistosoma mansoni [2]) | Toxicity (Schistosoma mansoni [3])
CCCc1c(CC)c(=N)c2ccccc2n1C | 1 | 0 | 0
COc1ccc(C=C2SC(=N)N(c3ccccc3OC)C2=O)cc1 | 0 | 0 | 0
CCOc1ccc(Nc2c3ccccc3nc3ccccc23)cc1.Cl | 2 | 3 | 4
COc1cc(-c2nc(-c3ccc(Sc4ccccc4)cc3)c(-c3ccccc3)[nH]2)cc(OC)c1O | 0 | 0 | 0
O=C(Nc1ccc(-c2nc3cc(NC(=O)c4ccc(Cl)cc4)ccc3[nH]2)cc1)c1ccc(Cl)cc1 | 1 | 0 | 0
CN1CCN(c2ncnc3c2[nH]c2ccc(Cl)cc23)CC1 | 0 | 0 | 0
CCCc1c(C)nc2ccc(Br)cc2c1O | 0 | 0 | 0
COc1cc(OC)c(N(C)C(=O)c2cc3c(s2)-c2ccccc2S(=O)(=O)C3)cc1Cl | 0 | 0 | 0
FC(F)(F)c1cccc(Nc2nc3ccccc3nc2Nc2cccc(C(F)(F)F)c2)c1 | 3 | 4 | 4
CN(C)c1ccc(C(O)(c2ccc(N(C)C)cc2)c2ccc(N(C)C)cc2)cc1 [METHYLROSANILINE] | 2 | 2 | 4
CC(NCc1ccccc1)c1cc(Cl)ccc1O (centres undefined) | 2 | 0 | 0
COc1ccc(-n2ccnc2SCC(=O)Nc2cc(C)ccc2C)c(OC)c1 | 1 | 1 | 1
CCOc1ccc(C2N(C)c3ccccc3N2C)cc1 | 2 | 0 | 0
CCOc1c(Br)cc(C2C(C(=O)OC)=CN(C)C=C2C(=O)OC)cc1OC | 0 | 0 | 0
COc1ccc(C2c3ccc4ccccc4c3Oc3ncn(CCCN(C)C)c(=N)c32)cc1 (centres undefined) | 4 | 4 | 4
CCOC(=O)c1c[nH]c2c(CC)cccc2c1=O | 0 | 0 | 3
O=C(Nc1ccccc1O)c1ccc(Oc2cccc(C(=O)Nc3ccccc3O)c2)cc1 | 0 | 2 | 2
COc1cc2c3cc1Oc1c(OC)c(OC)cc4c1C(Cc1ccc(O)c(c1)Oc1ccc(cc1)CC3N(C)CC2)N(C)CC4.Cl (centres undefined) | 2 | 3 | 4
CC(C)CNC(=O)c1c(N)n(CCc2ccccc2F)c2nc3ccccc3nc12 | 0 | 2 | 2
CC(C)c1ccc(CNCC(O)c2ccccc2)cc1.Cl (centres undefined) | 0 | 0 | 0
Cc1sc(NC(=O)c2ccco2)c(C(c2cccnc2)N2CCC(Cc3ccccc3)CC2)c1C (centres undefined) | 1 | 4 | 4
Cc1cc(Nc2ccc(Cl)cc2)n2nc(C(F)(F)F)nc2n1 | 0 | 0 | 0

Source: ChEMBL document CHEMBL2363022, “Malaria Box Schistosomiasis Screening Data” (2013)
